Results on eight compounds are retold here after patent US9127038B2, “Kisspeptide-pentasaccharide conjugates” (Merck Sharp & Dohme Corp., priority 2011, dated 2015).

Data set [1] is described as follows: In vitro stability in human serum (LC/MS/MS). Conditions: human.
Experimental: Test compound is added to 1.5 mL human serum in a 96-wells deepwell plate in a final concentration of 750 nM. The compound is mixed and immediately thereafter a 100 μl sample is harvested in a 96-wells 2D-tuberack (T=0 sample). The 2 D-tubes are closed with rubber tube caps and the sample plate is stored at −20° CF. in the freezer. The deepwell plate is put into an incubator which was set at humidified (95%) atmosphere at 5-7% CO2 and 37° C. for an incubation period of maximum 240 h. During this incubation period, samples of 100 μl are collected on various time intervals, dependent on the test compound used; time points 0, 1, 2, 3, 6, 24, 48, 72 h in case of Kisspeptides and 0, 3, 6, 24, 48, 72, 168, 240 h in case of kisspeptide-pentasaccharide conjugates. Sample plates are put on ice in case of sampling and stored at −20° C. until analysis by LC/MS/MS.
For LC-MS/MS analysis, the compounds are separated over an XTerra RP8 column and using a gradient mobile phase of ammonium acetate buffer and acetonitrile at a fixed column temperature. MS/MS detection is done with a triple quadrupole mass spectrometer and employing negative ion electrospray ionization. The mass spectrometer is set up to achieve a known degree of in source fragmentation, where the initially formed multiply charged negative ions lose one or more SO3 molecules. The most abundant of these secondary ions are then subjected to a common MS/MS experiment in which a single SO3 loss is monitored. The Q1 and Q3 mass filter settings for this MS/MS experiment have commonly been determined in method development. […] Internal standardization is accomplished by adding a different conjugate of approximately the same size to the bioanalytical samples.
The rate of compound loss is expressed as a half-life (plasma t^1/2). The t^1/2 for the test compound can be determined by plotting the natural logarithm (In) of the measured concentrations against time and fitting the line through all data points. The gradient of this line is the first order rate constant (k) for substrate disappearance and is determined by regression analysis. The rate constant is converted to a half-life according to the following equation: In vitro half-life(t^1/2)=−ln 2/k
Data set [2] concerns the target T1, human KISS-receptor (Homo sapiens, UniProt Q969F8).
T1 construct: expressed in transfected cells; host or cells: CHO-k1 cells that also express mitochondrially targeted aequorin, Gα16 and an NFAT-luciferase reporter
The data set is described as follows: NFAT-regulated luciferase reporter gene assay in CHO-k1 cells, agonist activity. Type of data set: cell-based. (A reporter such as luciferase makes a cellular process visible.)

Where [3] appears, read: absence of human serum, read-out: pEC50 (converted).
Where [4] appears, read: presence of 20% human serum, read-out: pEC50 serum (converted).

Molecules are shown by their SMILES. pEC50: −log10 of the molar value. Where two headings read alike, the source gives them in different places.

T1 sequence (Q969F8 whole entry): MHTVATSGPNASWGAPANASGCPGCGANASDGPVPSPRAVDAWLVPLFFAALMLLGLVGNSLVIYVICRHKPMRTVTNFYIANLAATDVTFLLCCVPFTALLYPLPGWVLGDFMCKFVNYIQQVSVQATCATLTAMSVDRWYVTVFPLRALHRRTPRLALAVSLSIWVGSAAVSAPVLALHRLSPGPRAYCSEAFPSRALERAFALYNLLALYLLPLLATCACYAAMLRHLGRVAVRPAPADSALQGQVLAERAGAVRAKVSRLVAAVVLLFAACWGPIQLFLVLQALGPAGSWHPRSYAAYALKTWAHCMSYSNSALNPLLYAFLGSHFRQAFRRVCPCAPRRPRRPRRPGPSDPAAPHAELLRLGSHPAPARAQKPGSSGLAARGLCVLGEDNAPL

The half-life is the time in which the quantity being followed falls by half. The compound `CNC(=N)NCCC[C@H](NC(=O)[C@H](CC(C)C)NC(=O)CNC(=O)[C@H](Cc1ccccc1)NC(=O)[C@@H](NC(=O)[C@H](CC(N)=O)NC(=O)[C@@H]1C[C@@H](O)CN1C(=O)[C@H](CC(N)=O)NC(=O)[C@H](Cc1ccc(O)cc1)NC(=O)CCOCCOCCOCCOCCn1cc(CCC(=O)NCCOCCOCCOCCO[C@H]2[C@H](OC)[C@@H](OC)[C@@H](O[C@H]3[C@H](OC)[C@@H](OC)[C@H](O[C@H]4[C@H](OS(=O)(=O)O)[C@@H](OS(=O)(=O)O)[C@@H](O[C@H]5[C@H](OC)[C@@H](OC)[C@H](O[C@H]6[C@H](OS(=O)(=O)O)[C@@H](OS(=O)(=O)O)[C@@H](OC)O[C@@H]6COS(=O)(=O)O)O[C@H]5C(=O)O)O[C@@H]4COS(=O)(=O)O)O[C@@H]3C(=O)O)O[C@@H]2COS(=O)(=O)O)nn1)[C@@H](C)O)C(=O)N[C@@H](Cc1ccccc1)C(N)=O` [Conjugate C26] displayed a half-life at 750 nM in data set [1] of over 240 h. `CNC(=N)NCCC[C@H](NC(=O)[C@H](CC(C)C)NC(=O)NNC(=O)[C@H](Cc1ccccc1)NC(=O)[C@@H](NC(=O)[C@H](CC(N)=O)NC(=O)[C@H](Cc1c[nH]c2ccccc12)NC(=O)[C@H](CC(N)=O)NC(=O)[C@H](Cc1ccc(O)cc1)NC(=O)CCCCn1cc(CCC(=O)NCCOCCOCCOCCO[C@H]2[C@H](OC)[C@@H](OC)[C@@H](O[C@H]3[C@H](OC)[C@@H](OC)[C@H](O[C@H]4[C@H](OS(=O)(=O)O)[C@@H](OS(=O)(=O)O)[C@@H](O[C@H]5[C@H](OC)[C@@H](OC)[C@H](O[C@H]6[C@H](OS(=O)(=O)O)[C@@H](OS(=O)(=O)O)[C@@H](OC)O[C@@H]6COS(=O)(=O)O)O[C@H]5C(=O)O)O[C@@H]4COS(=O)(=O)O)O[C@@H]3C(=O)O)O[C@@H]2COS(=O)(=O)O)nn1)[C@@H](C)O)C(=O)N[C@@H](Cc1ccccc1)C(N)=O` [Conjugate C22]: in data set [1], the half-life at 750 nM was over 240 h. `CNC(=N)NCCC[C@H](NC(=O)[C@H](CC(C)C)NC(=O)NNC(=O)[C@H](Cc1ccccc1)NC(=O)[C@@H](NC(=O)[C@H](CC(N)=O)NC(=O)[C@H](Cc1c[nH]c2ccccc12)NC(=O)[C@H](CC(N)=O)NC(=O)[C@@H](Cc1ccc(O)cc1)NC(=O)CCOCCOCCOCCOCCn1cc(CCC(=O)NCCOCCOCCOCCO[C@H]2[C@H](OC)[C@@H](OC)[C@@H](O[C@H]3[C@H](OC)[C@@H](OC)[C@H](O[C@H]4[C@H](OS(=O)(=O)O)[C@@H](OS(=O)(=O)O)[C@@H](O[C@H]5[C@H](OC)[C@@H](OC)[C@H](O[C@H]6[C@H](OS(=O)(=O)O)[C@@H](OS(=O)(=O)O)[C@@H](OC)O[C@@H]6COS(=O)(=O)O)O[C@H]5C(=O)O)O[C@@H]4COS(=O)(=O)O)O[C@@H]3C(=O)O)O[C@@H]2COS(=O)(=O)O)nn1)C(C)O)C(=O)N[C@@H](Cc1ccccc1)C(N)=O` (some centres unmarked) [Conjugate C11] showed a half-life at 750 nM in data set [1] of over 240 h.

In data set [1], `CNC(=N)NCCC[C@H](NC(=O)[C@H](CC(C)C)n1cc(CNC(=O)[C@H](Cc2ccccc2)NC(=O)[C@@H](NC(=O)[C@H](CC(N)=O)NC(=O)[C@H](Cc2c[nH]c3ccccc23)NC(=O)[C@H](CC(N)=O)NC(=O)[C@@H](Cc2ccc(O)cc2)NC(=O)CCOCCOCCOCCOCCn2cc(CCC(=O)NCCOCCOCCOCCO[C@H]3[C@H](OC)[C@@H](OC)[C@@H](O[C@H]4[C@H](OC)[C@@H](OC)[C@H](O[C@H]5[C@H](OS(=O)(=O)O)[C@@H](OS(=O)(=O)O)[C@@H](O[C@H]6[C@H](OC)[C@@H](OC)[C@H](O[C@H]7[C@H](OS(=O)(=O)O)[C@@H](OS(=O)(=O)O)[C@@H](OC)O[C@@H]7COS(=O)(=O)O)O[C@H]6C(=O)O)O[C@@H]5COS(=O)(=O)O)O[C@@H]4C(=O)O)O[C@@H]3COS(=O)(=O)O)nn2)[C@@H](C)O)nn1)C(=O)N[C@@H](Cc1ccccc1)C(N)=O` [Conjugate C20] yielded a half-life at 750 nM of over 240 h.

As a reminder, the pEC50 is the negative decadic logarithm of the EC50, by convention in mol/L. Consider `CNC(=N)NCCC[C@H](NC(=O)[C@H](CC(C)C)NC(=O)NNC(=O)[C@H](Cc1ccccc1)NC(=O)[C@@H](NC(=O)[C@H](CC(N)=O)NC(=O)[C@H](Cc1c[nH]c2ccccc12)NC(=O)[C@H](CC(N)=O)NC(=O)[C@@H](Cc1ccc(O)cc1)NC(=O)CCCCn1cc(CCC(=O)NCCOCCOCCOCCOCC(=O)NCCOCCOCCOCCO[C@H]2[C@H](OC)[C@@H](OC)[C@@H](O[C@H]3[C@H](OC)[C@@H](OC)[C@H](O[C@H]4[C@H](OS(=O)(=O)O)[C@@H](OS(=O)(=O)O)[C@@H](O[C@H]5[C@H](OC)[C@@H](OC)[C@H](O[C@H]6[C@H](OS(=O)(=O)O)[C@@H](OS(=O)(=O)O)[C@@H](OC)O[C@@H]6COS(=O)(=O)O)O[C@H]5C(=O)O)O[C@@H]4COS(=O)(=O)O)O[C@@H]3C(=O)O)O[C@@H]2COS(=O)(=O)O)nn1)[C@@H](C)O)C(=O)N[C@@H](Cc1ccccc1)C(N)=O` [Conjugate C6], for which the pEC50 is 9.83 in data set [2] (pEC50, absence of human serum) and 8.25 in data set [2] (pEC50 serum, presence of 20% human serum). Take `CNC(=N)NCCC[C@H](NC(=O)[C@H](CC(C)C)NC(=O)NNC(=O)[C@H](Cc1ccccc1)NC(=O)[C@@H](NC(=O)[C@H](CC(N)=O)NC(=O)[C@@H]1C[C@@H](O)CN1C(=O)[C@@H](Cc1ccc(O)cc1)NC(=O)CCCCn1cc(CCC(=O)NCCOCCOCCOCCO[C@H]2[C@H](OC)[C@@H](OC)[C@@H](O[C@H]3[C@H](OC)[C@@H](OC)[C@H](O[C@H]4[C@H](OS(=O)(=O)O)[C@@H](OS(=O)(=O)O)[C@@H](O[C@H]5[C@H](OC)[C@@H](OC)[C@H](O[C@H]6[C@H](OS(=O)(=O)O)[C@@H](OS(=O)(=O)O)[C@@H](OC)O[C@@H]6COS(=O)(=O)O)O[C@H]5C(=O)O)O[C@@H]4COS(=O)(=O)O)O[C@@H]3C(=O)O)O[C@@H]2COS(=O)(=O)O)nn1)[C@@H](C)O)C(=O)N[C@@H](Cc1c[nH]c2ccccc12)C(N)=O` [Conjugate C31]: the half-life at 750 nM in data set [1] was over 240 h.

In the case of `CO[C@H]1O[C@H](COS(=O)(=O)O)[C@@H](O[C@@H]2O[C@@H](C(=O)O)[C@@H](O[C@H]3O[C@H](COS(=O)(=O)O)[C@@H](O[C@@H]4O[C@H](C(=O)O)[C@@H](O[C@H]5O[C@H](COS(=O)(=O)O)[C@@H](OCCOCCOCCOCCNC(=O)CCc6cn(CCCCC(=O)N[C@H](Cc7ccc(O)cc7)C(=O)N7C[C@H](O)C[C@H]7C(=O)N[C@@H](CC(N)=O)C(=O)N[C@H](C(=O)N[C@@H](Cc7ccccc7)C(=O)NCC(=O)N[C@@H](CC(C)C)C(=O)N[C@@H](CCCNC(=N)N)C(=O)N[C@@H](Cc7c[nH]c8ccccc78)C(N)=O)[C@@H](C)O)nn6)[C@H](OC)[C@H]5OC)[C@H](OC)[C@H]4OC)[C@H](OS(=O)(=O)O)[C@H]3OS(=O)(=O)O)[C@H](OC)[C@H]2OC)[C@H](OC)[C@H]1OS(=O)(=O)O` [Conjugate C38], the EC50 was 0.0427 nM in data set [2] (setting [3]) and 0.316 nM in data set [2] (setting [4]). For the compound `CNC(=N)NCCC[C@H](NC(=O)[C@H](CC(C)C)NC(=O)NNC(=O)[C@H](Cc1ccccc1)NC(=O)[C@@H](NC(=O)[C@H](CC(N)=O)NC(=O)[C@@H]1C[C@@H](O)CN1C(=O)[C@@H](Cc1ccc(O)cc1)NC(=O)CCOCCOCCOCCOCCn1cc(CCC(=O)NCCOCCOCCOCCOCC(=O)NCCOCCOCCOCCO[C@H]2[C@H](OC)[C@@H](OC)[C@@H](O[C@H]3[C@H](OC)[C@@H](OC)[C@H](O[C@H]4[C@H](OS(=O)(=O)O)[C@@H](OS(=O)(=O)O)[C@@H](O[C@H]5[C@H](OC)[C@@H](OC)[C@H](O[C@H]6[C@H](OS(=O)(=O)O)[C@@H](OS(=O)(=O)O)[C@@H](OC)O[C@@H]6COS(=O)(=O)O)O[C@H]5C(=O)O)O[C@@H]4COS(=O)(=O)O)O[C@@H]3C(=O)O)O[C@@H]2COS(=O)(=O)O)nn1)[C@@H](C)O)C(=O)N[C@@H](Cc1c[nH]c2ccccc12)C(N)=O` [Conjugate C33], the EC50 is 0.0589 nM in data set [2] (setting [3]) and 0.912 nM in data set [2] (setting [4]).
